# In patent publication US7462630B2, “Diarylalkene derivatives and novel diarylalkane derivatives” (Ajinomoto Co., Inc., priority 2001, dated 2008):
# Assays:
# [1] = molecular target: T1, N-type calcium channel (Homo sapiens, UniProt Q00975); assay: Antagonistic activity on N-type calcium channel (fluorescence dye method, KCl-stimulated intracellular calcium change in IMR-32 cells with 1 μM Nifedipine); assay type: cell-based; conditions: 10 μM test compound, 60 mM KCl stimulation, read-out: Antagonistic activity on N-type calcium channels at 10 μM inhibition rate (%)
# T1 construct: host or cells: IMR-32 human neuroblastoma cells, differentiated with dibutyl cAMP and 5-bromodeoxyuridine
# Method: Human neuroblastoma cells IMR-32 were obtained from ATCC (American Type Culture Collection). The medium used was a Phenol Red-free Eagle minimum essential medium containing earle's salts (GIBCO) supplemented with 2 mM of L-glutamine (GIBCO), 1 mM of sodium pyruvate (pH 6.5) (GIBCO), antibiotic/antimycotic mixture (GIBCO) and 10% fetal calf serum (Cell Culture Technologies). Three ml of 1×10^5 cells/ml IMR-32 cells were spread on the glass bottom of a dish (Iwaki Glsss Co., Ltd.) having a diameter of 35 mm which had been treated with poly-L-lysin (SIGMA) and collagen (COLLAGEN VITROGEN 100; Collagen Co.). After the culture for 1 day, 1 mM (final concentration) of dibutyl cAMP and 2.5 μM (final concentration) of 5-bromodeoxyuridine (SIGMA) were added. After the culture for additional 10 to 14 days, the cells were subjected to the activity determination.
# The medium for IMR-32 cells thus prepared was replaced with 1 ml of Phenol Red-free Eale minimum essential medium (GIBCO) containing 2.5 μM fura-2/AM (Dojin Kagaku, Co.) and earle's salts supplement, and the incubation was conducted at 37° C. for 30 minutes. Then the medium was replaced with a recording medium (20 mM of HEPES-KOH, 115 mM of NaCl, 5.4 mM of KCl, 0.8 mM of MgCl2, 1.8 mM of CaCl2 and 13.8 mM of D-glucose). Antagonistic activity on N-type calcium channel was determined and analyzed using a fluorescence microscope (Nikon Corporation) and an image analysis device ARGUS 50 (Hamamatsu Photonics). In particular, a recording medium (20 mM of HEPES-KOH, 115 mM of NaCl, 5.4 mM of KCl, 0.8 mM of MgCl2, 1.8 mM of CaCl2 and 13.8 mM of D-glucose) containing 1 μM of Nifedipine was given to the cells by reflux by a Y-tube method for 2 minutes. Then a stimulating agent containing 60 mM of potassium chloride was rapidly given by the Y-tube method. The calcium concentration change in the cells in this step was shown as the N-type calcium channel activity. Then stimulating agents containing 60 mM of potassium chloride and 0.1, 1 or 10 μM of the test compound were successively and rapidly given to the cells by the Y-tube method to determine the change in the intracellular calcium concentration. The antagonistic activity on N-type calcium channel was calculated from the inhibition rate (%) at a concentration of 10 μM.
# [2] = molecular target: T2, L-type calcium channel (Rattus norvegicus, UniProt P22002); assay: Antagonistic activity on L-type calcium channel (relaxation response against KCl-induced contraction of isolated rat thoracic aorta); conditions: read-out: Antagonistic action on L-type calcium channels pIC50 (converted)
# T2 construct: relaxation response against the KCl-induced contraction of isolated rat thoracic aorta was employed; from tissue; host or cells: endothelium-denuded thoracic aorta rings of Wistar rat
# Method: The antagonistic activity of the new diarylalkene derivatives and diarylalkane derivatives of the present invention to inhibit L-type calcium channel was determined by the following method in which the relaxation response against the KCl-induced contraction of isolated rat thoracic aorta was employed.
# The slips of thoracic aorta isolated from a Wistar rat were used. The aorta was cut to obtain ring-shaped samples having a width of about 3 mm. The endothelial cells of the samples were mechanically removed. The samples were suspended in a strain gage in Tyrode's solution (158.3 mM of NaCl, 4.0 mM of KCl, 1.05 mM of MgCl2, 0.42 mM of NaH2PO4, 10 mM of NaHCO3, 2 mM of CaCl2 and 5 mM of glucose) in which a gaseous mixture of O2 (95%) and CO2 (5%) was introduced. A static tension of 2 g was applied thereto. The tension of the blood vessel was amplified with a transducer and a tension amplifier (EF-601G; Nihon Koden Corporation) and recorded with a multi-pen recorder (Rikadenki Kogyo Co., Ltd.). The experiments were conducted at 37° C.
# After the tension had been stabilized, the nutrient solution in the sample tank was replaced with High K^+ Tyrode's solution (112.3 mM of NaCl, 50 mM of KCl, 1.05 mM of MgCl2, 0.42 mM of NaH2PO4, 10 mM of NaHCO3, 2 mM of CaCl2 and 5 mM of glucose) to conduct the contraction reaction. Thirty minutes after, the solution in the sample tank was replaced with the normal Tyrode's solution. The solution in the sample tank was again replaced with the High K^+ Tyrode's solution and the contraction reaction was observed. After attaining the maximum contraction reaction, the test compound was cumulatively added at intervals of 90 minutes to attain concentrations of 10^−9, 10^−8, 10^−7 and 10^−6 M. The inhibitory rate of the test compound against the maximum contraction response was employed as the index of the antagonistic activity on L-type calcium channels.
# The value of pIC50 indicates the antagonistic activity of the test compound, i. e. the negative logarithm of the concentration of the test compound necessitated for the 50% inhibition.
# T1 sequence (Q00975 whole entry): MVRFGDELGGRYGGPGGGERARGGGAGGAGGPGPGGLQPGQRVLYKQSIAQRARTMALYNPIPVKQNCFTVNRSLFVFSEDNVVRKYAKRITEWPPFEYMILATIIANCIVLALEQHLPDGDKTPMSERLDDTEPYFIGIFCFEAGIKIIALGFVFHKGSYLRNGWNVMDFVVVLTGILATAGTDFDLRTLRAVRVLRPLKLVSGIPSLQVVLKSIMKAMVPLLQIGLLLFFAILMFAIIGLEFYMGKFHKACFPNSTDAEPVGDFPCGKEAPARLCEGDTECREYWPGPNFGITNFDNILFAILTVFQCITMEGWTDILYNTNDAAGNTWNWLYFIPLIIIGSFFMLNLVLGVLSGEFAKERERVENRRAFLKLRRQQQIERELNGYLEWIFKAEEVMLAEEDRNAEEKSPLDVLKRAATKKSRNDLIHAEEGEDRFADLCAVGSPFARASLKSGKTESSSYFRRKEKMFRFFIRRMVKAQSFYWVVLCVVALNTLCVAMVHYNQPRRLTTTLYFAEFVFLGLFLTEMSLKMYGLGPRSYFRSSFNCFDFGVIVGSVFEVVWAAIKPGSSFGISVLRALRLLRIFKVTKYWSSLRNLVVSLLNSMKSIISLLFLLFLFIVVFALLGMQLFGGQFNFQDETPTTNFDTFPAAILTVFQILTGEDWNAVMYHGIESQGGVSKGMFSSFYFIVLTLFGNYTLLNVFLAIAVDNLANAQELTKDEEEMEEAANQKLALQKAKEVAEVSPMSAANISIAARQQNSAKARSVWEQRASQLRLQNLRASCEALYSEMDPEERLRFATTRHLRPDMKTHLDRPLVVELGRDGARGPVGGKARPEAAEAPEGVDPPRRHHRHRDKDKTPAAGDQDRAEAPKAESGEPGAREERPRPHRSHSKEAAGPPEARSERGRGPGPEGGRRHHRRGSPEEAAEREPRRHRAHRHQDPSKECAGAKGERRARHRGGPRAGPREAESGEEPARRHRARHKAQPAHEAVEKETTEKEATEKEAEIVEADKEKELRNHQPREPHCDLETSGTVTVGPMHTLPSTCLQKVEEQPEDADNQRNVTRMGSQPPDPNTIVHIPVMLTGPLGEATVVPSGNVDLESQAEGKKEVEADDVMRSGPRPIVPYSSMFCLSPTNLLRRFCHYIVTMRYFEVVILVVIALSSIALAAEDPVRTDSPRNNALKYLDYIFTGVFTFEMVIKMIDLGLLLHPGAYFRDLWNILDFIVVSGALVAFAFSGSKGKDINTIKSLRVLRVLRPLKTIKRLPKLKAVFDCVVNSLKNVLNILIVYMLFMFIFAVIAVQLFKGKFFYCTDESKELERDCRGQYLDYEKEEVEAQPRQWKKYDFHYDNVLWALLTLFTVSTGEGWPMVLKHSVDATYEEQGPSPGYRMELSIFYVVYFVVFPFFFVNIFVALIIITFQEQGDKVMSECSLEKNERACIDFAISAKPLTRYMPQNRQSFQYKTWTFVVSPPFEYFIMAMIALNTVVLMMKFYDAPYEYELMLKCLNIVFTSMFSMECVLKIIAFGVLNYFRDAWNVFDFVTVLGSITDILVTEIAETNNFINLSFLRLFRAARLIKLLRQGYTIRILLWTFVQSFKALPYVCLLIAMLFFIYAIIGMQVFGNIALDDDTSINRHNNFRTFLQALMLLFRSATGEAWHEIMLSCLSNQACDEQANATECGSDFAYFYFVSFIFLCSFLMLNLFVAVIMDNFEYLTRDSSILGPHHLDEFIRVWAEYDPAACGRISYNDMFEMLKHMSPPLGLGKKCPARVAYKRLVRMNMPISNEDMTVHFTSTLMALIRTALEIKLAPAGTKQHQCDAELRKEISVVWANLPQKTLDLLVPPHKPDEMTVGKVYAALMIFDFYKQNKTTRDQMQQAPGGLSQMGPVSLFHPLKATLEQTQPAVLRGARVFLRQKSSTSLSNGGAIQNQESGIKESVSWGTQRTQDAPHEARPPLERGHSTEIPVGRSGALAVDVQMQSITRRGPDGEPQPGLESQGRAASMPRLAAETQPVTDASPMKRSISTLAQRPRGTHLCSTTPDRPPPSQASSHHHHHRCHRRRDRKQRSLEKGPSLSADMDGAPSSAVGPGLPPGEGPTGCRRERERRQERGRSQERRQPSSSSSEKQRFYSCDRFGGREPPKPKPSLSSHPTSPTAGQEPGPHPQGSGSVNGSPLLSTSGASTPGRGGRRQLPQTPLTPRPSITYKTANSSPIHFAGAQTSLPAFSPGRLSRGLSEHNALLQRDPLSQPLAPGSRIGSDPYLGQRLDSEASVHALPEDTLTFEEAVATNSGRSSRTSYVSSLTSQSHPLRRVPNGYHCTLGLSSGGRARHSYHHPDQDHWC
# T1 sequence (P54284 whole entry partner): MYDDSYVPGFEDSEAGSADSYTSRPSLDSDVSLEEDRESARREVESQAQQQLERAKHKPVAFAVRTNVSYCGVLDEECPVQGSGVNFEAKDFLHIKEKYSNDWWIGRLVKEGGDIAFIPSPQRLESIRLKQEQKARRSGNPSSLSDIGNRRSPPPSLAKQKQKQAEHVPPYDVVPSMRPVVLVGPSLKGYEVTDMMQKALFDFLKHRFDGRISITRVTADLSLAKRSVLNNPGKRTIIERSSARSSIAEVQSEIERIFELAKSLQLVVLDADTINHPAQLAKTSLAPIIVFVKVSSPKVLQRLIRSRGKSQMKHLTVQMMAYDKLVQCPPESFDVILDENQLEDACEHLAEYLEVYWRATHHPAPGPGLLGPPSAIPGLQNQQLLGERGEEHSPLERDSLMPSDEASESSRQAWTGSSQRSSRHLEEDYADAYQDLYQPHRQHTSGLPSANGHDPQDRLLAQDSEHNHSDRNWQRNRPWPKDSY
# T1 sequence (P54289 25-956 partner limits assumed): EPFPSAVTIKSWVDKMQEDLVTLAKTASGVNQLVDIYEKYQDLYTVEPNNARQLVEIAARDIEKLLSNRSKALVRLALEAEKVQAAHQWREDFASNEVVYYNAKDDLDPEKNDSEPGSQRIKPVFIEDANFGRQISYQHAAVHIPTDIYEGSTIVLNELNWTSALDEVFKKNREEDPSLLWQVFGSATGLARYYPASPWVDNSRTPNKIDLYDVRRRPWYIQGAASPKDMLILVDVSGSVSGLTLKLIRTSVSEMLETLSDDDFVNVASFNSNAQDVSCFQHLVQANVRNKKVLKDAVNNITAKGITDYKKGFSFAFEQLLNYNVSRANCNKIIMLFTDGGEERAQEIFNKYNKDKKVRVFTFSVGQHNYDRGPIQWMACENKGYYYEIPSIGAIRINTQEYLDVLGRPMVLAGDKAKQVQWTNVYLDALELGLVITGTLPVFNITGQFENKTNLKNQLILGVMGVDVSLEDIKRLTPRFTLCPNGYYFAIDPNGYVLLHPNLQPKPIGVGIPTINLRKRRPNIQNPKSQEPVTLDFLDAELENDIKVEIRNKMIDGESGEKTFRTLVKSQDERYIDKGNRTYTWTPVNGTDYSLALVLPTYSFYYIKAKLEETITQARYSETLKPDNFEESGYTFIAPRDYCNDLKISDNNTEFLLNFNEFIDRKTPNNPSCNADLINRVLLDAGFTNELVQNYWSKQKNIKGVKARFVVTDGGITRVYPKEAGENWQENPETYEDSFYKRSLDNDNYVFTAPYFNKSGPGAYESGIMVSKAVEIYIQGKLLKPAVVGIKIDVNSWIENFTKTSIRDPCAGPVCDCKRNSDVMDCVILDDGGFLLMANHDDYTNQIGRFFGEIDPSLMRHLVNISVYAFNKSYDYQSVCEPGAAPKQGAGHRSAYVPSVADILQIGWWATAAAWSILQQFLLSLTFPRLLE
# T1 sequence (P54289 957-1103 partner limits assumed): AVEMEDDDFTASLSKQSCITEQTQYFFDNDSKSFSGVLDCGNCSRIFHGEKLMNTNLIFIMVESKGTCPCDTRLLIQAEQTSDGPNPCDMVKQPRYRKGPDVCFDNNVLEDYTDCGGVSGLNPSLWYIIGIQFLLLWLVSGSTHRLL
SMILES,inhibition at 10 µM [1],IC50 [2]
"CC(C)(C)OC(=O)NCC(=O)N1CCC(=C2c3ccccc3CSc3ccccc32)CC1 [Example 24, t-butyl 2-(4-dibenzo[b,e]thiepin-11(6H)-ylidene-1-piperidinyl)-2-oxoethylcarbamate]",78%,1000 nM
"CCOC(=O)N[C@@H](CO)CC(=O)N1CCC(=C2c3ccccc3C=Cc3ccccc32)CC1 [Example 73, (R)-ethyl3-[4-(5H-dibenzo[a,d][7]annulen-5-ylidene)-1-piperidinyl]-1-(hydroxymethyl)-3-oxopropylcarbamate]",75%,2000 nM
"CC(C)(C)OC(=O)NCC(=O)N1CCC(=C2c3ccccc3CCc3ccccc32)CC1 [Example 16, t-butyl 2-[4(10,11-dihydro-5H-dibenzo[a,d][7]annulen-5-ylidene)-1-piperidinyl]-2-oxoethyl carbamate]",75%,1260 nM
"CC(C)(C)OC(=O)N[C@@H](CO)CC(=O)N1CCC(=C2c3ccccc3Sc3ccccc32)CC1 [Example 76, tert-butyl (1R)-1-(hydroxymethyl)-3-oxo-3-[4-(9H-thioxanthen-9-ylidene)-1-piperidinyl]propylcarbamate]",85%,794 nM
"CC(C)(C)OC(=O)NCCCNC(=O)C=C1c2ccccc2C=Cc2ccccc21 [Example 41, t-butyl 3-[(5H-dibenzo[a,d][7]annulen-5-ylidenacetyl)amino]-propylcarbamate]",76%,1260 nM
CC(C)(C)C(=O)N[C@H](CO)CCC(=O)N1CCC(=C2c3ccccc3CCc3ccccc32)CC1 [Example 78],84%,2510 nM
"CC(C)(C)C(=O)N[C@@H](CO)CCC(=O)N1CCC(=C2c3ccccc3C=Cc3ccccc32)CC1 [Example 72, (R)-N-[4-[4-(5H-dibenzo[a,d][7]annulen-5-ylidene)-1-piperidinyl]-1-(hydroxylmethyl)-4-oxobutyl]-2,2-dimethylpropanamide]",81%,794 nM

# The remaining lines, values ahead:
inhibition at 10 µM [1],IC50 [2],SMILES
83%,501 nM,"CC(C)(C)NC(=O)CCC(=O)N1CCC(=C2c3ccccc3C=Cc3ccccc32)CC1 [Example 9, N-(t-butyl)-4-[4-(5H-dibenzo[a,d][7]annulen-5-ylidene)-1-piperidinyl]-4-oxobutanamide]"
67%,1000 nM,"CC(C)(C)OC(=O)NCC(=O)N1CCC(=C2c3ccccc3C=Cc3ccccc32)CC1 [Example 1, t-butyl 2-[4-(5H-dibenzo[a,d][7]annulen-5-ylidene)-1-piperidinyl]-2-oxoethylcarbamate]"
82%,398 nM,"CC(C)(C)OC(=O)N[C@@H](CO)CC(=O)N1CCC(=C2c3ccccc3C=Cc3ccccc32)CC1 [Example 68, (R)-t-butyl 3-[4-(5H-dibenzo[a,d][7]annulen-5-ylidene)-1-piperidinyl]-1-(hydroxymethyl)-3-oxopropylcarbamate]"
